Measured values: patent US10703746B2, “Mutant IDH1 inhibitors useful for treating cancer” (THE UNITED STATES OF AMERICA, AS REPRESENTED BY THE …, priority 2014, dated 2020)

How the values were obtained:
[1] = target: IDH1 R132H (Homo sapiens, UniProt O75874, R132H); test: IDH1 R132H enzymatic assay (NADPH depletion coupled to diaphorase/resazurin); format: biochemical; details: IDH1 R132H enzymatic inhibition, IC50 class
[2] = target: IDH1 R132C (Homo sapiens, UniProt O75874, R132C); test: IDH1 R132C enzymatic assay (NADPH depletion coupled to diaphorase/resazurin); format: biochemical; details: IDH1 R132C enzymatic inhibition, IC50 class
Summary of the method: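 NADPH depletion, read via diaphorase/resazurin coupling, after adding substrate at 0.6 mM α-KG and 0.012 mM NADPH. Beforehand, 0.00032 mg/mL enzyme sat with compound 30 min at room temperature in pH 6.5 potassium phosphate buffer with MgCl2, glycerol and BSA.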

Sequence of IDH1 R132C (O75874 whole entry R132C): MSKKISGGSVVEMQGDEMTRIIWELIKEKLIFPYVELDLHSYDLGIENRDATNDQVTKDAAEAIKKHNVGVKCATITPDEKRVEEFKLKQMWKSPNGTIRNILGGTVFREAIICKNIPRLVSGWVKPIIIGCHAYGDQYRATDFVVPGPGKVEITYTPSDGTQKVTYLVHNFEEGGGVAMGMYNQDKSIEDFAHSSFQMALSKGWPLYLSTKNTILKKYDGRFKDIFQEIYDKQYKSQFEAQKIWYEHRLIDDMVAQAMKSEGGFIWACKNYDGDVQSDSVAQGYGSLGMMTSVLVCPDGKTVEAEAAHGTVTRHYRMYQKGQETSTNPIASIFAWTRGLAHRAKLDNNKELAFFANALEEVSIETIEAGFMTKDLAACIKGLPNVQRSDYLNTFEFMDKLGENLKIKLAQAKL
Sequence of IDH1 R132H (O75874 whole entry R132H): as the sequence (O75874 whole entry R132C) above, with C132H counted along it

Row | SMILES | IC50 [1] [nM] | IC50 [2] [nM]
1 | CCc1cccc(CC)c1-n1c(C=C(C)C)c(C(=O)N2CCNCC2)cc(-c2ccn(-c3ccc(Cl)cc3)n2)c1=O [Compound 349] | < 300 | < 300
2 | O=C1CCCc2c1cc(-c1nc(-c3ccc(Cl)cc3)cs1)c(=O)n2-c1ccccn1 [Compound 350] | > 20000 | > 20000
3 | COc1ncc(C2=CCNCC2)cc1-n1c2c(cc(-c3nc(-c4ccc(Cl)cc4)cs3)c1=O)C(=O)CC(C)(C)C2 [Compound 351] | 5000 to 20000 | 5000 to 20000
4 | CCc1ccc(F)cc1-n1c(C=C(C)C)c(C(=O)N2CCNCC2)cc(-c2nc(-c3ccc(Cl)cc3)cs2)c1=O [Compound 352] | < 300 | < 300
5 | CCOc1ccc(Cl)c(-n2c(C=C(C)C)c(C(=O)N3CCNCC3)cc(-c3nc(-c4ccc(Cl)cc4)cs3)c2=O)c1 [Compound 354] | < 300 | < 300
6 | CCc1cccc(CC)c1N1C(=O)C(c2nc(-c3ccc(Cl)cc3)cs2)CC(C(=O)N2CCNCC2)=C1CC(C)C (stereo not drawn) [Compound 356] | 300 to 1000 | < 300
7 | CC(C)=Cc1c(C(=O)N2CCNCC2)cc(-c2nc(-c3ccc(Cl)cc3)cs2)c(=O)n1-c1cc(C)ccc1Cl [Compound 357] | < 300 | < 300
8 | CCc1cccc(CC)c1-n1c(C=C(C)C)c(C(=O)N2CCNC(=O)C2)cc(-c2nc(-c3ccc(Cl)cc3)cs2)c1=O [Compound 358] | < 300 | < 300
9 | CC(C)=Cc1c(C(=O)N2CCNCC2)cc(-c2nc(-c3ccc(Cl)cc3)cs2)c(=O)n1-c1cc(Cl)ccc1Cl [Compound 359] | < 300 | < 300
10 | CN1CCN(Cc2ccc(-n3c4c(cc(-c5nc(-c6ccc(Cl)cc6)cs5)c3=O)C(=O)CCC4)cc2)CC1 [Compound 360] | > 20000 | > 20000
11 | COc1ncc(F)cc1-n1c(C=C(C)C)c(C(=O)N2CCNCC2)cc(-c2nc(-c3ccc(Cl)cc3)cs2)c1=O [Compound 361] | < 300 | < 300
12 | CCc1cccc(CC)c1-n1c(C=C(C)C)c(C(=O)N2CCNCC2)cc(-c2nn(-c3ccc(Cl)cc3)cc2Br)c1=O [Compound 363] | 1000 to 5000 | 5000 to 20000
13 | COc1ccc(Cl)c(-n2c(CC(C)C)c(C(=O)N3CCNCC3)cc(-c3nc(-c4ccc(Cl)cc4)cs3)c2=O)c1 [Compound 364] | < 300 | 300 to 1000
14 | CCc1cccc(CC)c1-n1c(CC2CCNCC2)c(C(=O)NC)cc(-c2nc(-c3ccc(Cl)cc3)cs2)c1=O [Compound 365] | 5000 to 20000 | 5000 to 20000
15 | CCc1cccc(CC)c1-n1c(C=C(C)C)c(C(=O)N2CCNCC2(C)C)cc(-c2nc(-c3ccc(Cl)cc3)cs2)c1=O [Compound 366] | < 300 | < 300
16 | CC(C)=Cc1c(C(=O)N2CCNCC2)cc(-c2nc(-c3ccc(Cl)cc3)cs2)c(=O)n1-c1c(Cl)cccc1OC(C)C [Compound 367] | < 300 | < 300
17 | O=C1CCCc2c1cc(-c1nc(-c3ccc(Cl)cc3)cs1)c(=O)n2-c1ccncc1 [Compound 368] | > 20000 | > 20000
18 | CC1(C)CC(=O)c2cc(-c3nc(-c4ccc(Cl)cc4)cs3)c(=O)n(-c3sccc3C(N)=O)c2C1 [Compound 369] | 5000 to 20000 | 5000 to 20000
19 | CCc1cccc(CC)c1-n1c(C=C(C)C)c(C(=O)N2CCNC(C)C2)cc(-c2nc(-c3ccc(Cl)cc3)cs2)c1=O (stereo not drawn) [Compound 370] | < 300 | < 300
20 | CCc1cccc(CC)c1-n1c(C=C(C)C)c(C(=O)N2CCNC(CCO)C2)cc(-c2nc(-c3ccc(Cl)cc3)cs2)c1=O (stereo not drawn) [Compound 371] | < 300 | < 300
21 | CC(C)=Cc1c(C(=O)N2CCNCC2)cc(-c2nc(-c3ccc(Cl)cc3)cs2)c(=O)n1-c1ccccc1C(C)(C)C [Compound 372] | < 300 | < 300
22 | CCc1cccc(CC)c1-n1c(CCC(F)(F)F)c(C(=O)N2CCNCC2)cc(-c2nc(-c3ccc(Cl)cc3)cs2)c1=O [Compound 373] | 300 to 1000 | 300 to 1000
23 | CCOc1cccc(Cl)c1-n1c(C=C(C)C)c(C(=O)N2CCNCC2)cc(-c2nc(-c3ccc(Cl)cc3)cs2)c1=O [Compound 374] | < 300 | < 300
24 | COc1cccc(C)c1-n1c2c(cc(-c3nc(-c4ccc(Cl)cc4)cs3)c1=O)C(=O)CCC2 [Compound 375] | 1000 to 5000 | 1000 to 5000
25 | CCOc1ccc(F)cc1-n1c(C=C(C)C)c(C(=O)N2CCNCC2)cc(-c2nc(-c3ccc(C(F)F)cc3)cs2)c1=O [Compound 376] | < 300 | < 300
26 | CCc1cccc(CC)c1-n1c(C=C(C)C)c(C(=O)N2CCNCC2)cc(-c2nc(-c3ccc(Cl)cn3)cs2)c1=O [Compound 377] | < 300 | < 300
27 | CCOc1ccc(Cl)cc1-n1c(C=C(C)C)c(C(=O)N2CCNCC2)cc(-c2nc(-c3ccc(C(F)F)cc3)cs2)c1=O [Compound 378] | < 300 | < 300
